From patent US20250019369A1, “N-(4-aminocyclohexyl)pyrimidine-4-carboxamide derivatives as CD38 inhibitors” (Cerevance, Inc., priority 2021, published 2025)

How the values were obtained:
[1] = Tissue binding assay, plasma (equilibrium dialysis); assay type: in vitro ADME; details: dialysis 4 hours at 37° C.
Method: [The source words this procedure for another target and reports this target under the same test.] (§1) Buffer preparation. A basic solution was prepared by dissolving 14.2 g/L Na2HPO4 and 8.77 g/L NaCl in deionized H2O. An acidic solution was prepared by dissolving 15.6 g/L NaH2PO4·2H2O and 8.77 g/L NaCl in deionized H2O. Using the acidic solution, the basic solution was then titrated to pH 7.4±0.1 and stored at 4° C. for up to 1 month. The stop solution was 100% CH3CN containing 200 ng/mL tolbutamide, 200 ng/mL labetalol and 50 ng/mL metformin.
(§2) Test method. Dialysis membrane strips were soaked in ultra-pure water at room temperature for ˜1 hour. Each membrane strip containing 2 membranes was separated and soaked in 20:80 EtOH/H2O (v/v) for ˜20 min, after which they were ready for use or were stored in the solution at 2-8° C. for up to 1 month. Prior to the experiment, the membrane was rinsed and soaked for 20 min in ultra-pure water. On the day of experiment, brain homogenate was thawed in a water bath at room temperature and incubated at 37° C. for 10 min before use. Test and control compounds were dissolved in DMSO to achieve 10 mM stock solutions. DMSO working solutions were prepared at 400 μM by diluting 10 μL of stock solution. To prepare the time zero (t=0) samples to be used for recovery determination, 50 μL aliquots of loading matrix were transferred in triplicate to the sample collection plate. The samples were immediately matched with opposite blank buffer to obtain a final volume of 100 μL of 1:1 matrix/dialysis buffer (v/v) in each well. 500 μL of stop solution were added to these t=0 samples. They were then stored at 2-8° C. pending further processes along with other post-dialysis samples. To load the dialysis device, an aliquot of 150 μL of the loading matrix was transferred to the donor side of each dialysis well in triplicate, and 150 μL of the dialysis buffer was loaded to the receiver side of the well. The dialysis plate was placed in a humidified incubator at 37° C. with 5% CO2 on a shaking platform that rotated slowly (about 100 rpm) for 4 hours. At the end of the dialysis, aliquots of 50 μL of samples were taken from both the buffer side and the matrix side of the dialysis device. These samples were transferred into new 96-well plates. Each sample was mixed with an equal volume of opposite blank matrix (buffer or matrix) to reach a final volume of 100 μL of 1:1 matrix/dialysis buffer (v/v) in each well. All samples were further processed by adding 500 μL of stop solution containing internal standards. The mixture was vortexed and centrifuged at 4000 rpm for about 20 min. An aliquot of 100 μL of supernatant of all the samples was then removed for LC-MS/MS analysis. The single blank samples were prepared by transferring 50 μL of blank matrix to a 96-well plate and adding 50 μL of blank PBS buffer to each well. Then the matrix-matched samples were further processed by adding 500 μL of stop solution containing internal standards, following the same sample processing method as the dialysis samples.
(§3) Data analysis. The % undiluted unbound, % undiluted bound and % recovery were calculated using the following equations:
(§4) % Undiluted Unbound=100*1/D/((1/(F/T)−1)+1/D)
(§5) % Undiluted Bound=100−% Undiluted Unbound
(§6) where F is the analyte concentration or peak area ratio of analyte/internal standard on the buffer (receiver) side of the membrane; T is the analyte concentration or peak area ratio of analyte/internal standard on the matrix (donor) side of the membrane; To is the analyte concentration or the peak area ratio of analyte/internal standard in the loading matrix sample at time zero; and D is the dilution factor determined as 4 in this assay.

Recombinant mouse CD38 = Recombinant mouse CD38 (Mus musculus (Mouse), UniProt P56528); test: Mouse CD38 hydrolase assay (fluorescence, ε-NAD substrate); assay type: biochemical; details: recombinant mouse CD38 0.4 nM, 12 μM ε-NAD, 30 min preincubation at 25° C., pH 7.4
Sequence of Recombinant mouse CD38 (P56528 whole entry): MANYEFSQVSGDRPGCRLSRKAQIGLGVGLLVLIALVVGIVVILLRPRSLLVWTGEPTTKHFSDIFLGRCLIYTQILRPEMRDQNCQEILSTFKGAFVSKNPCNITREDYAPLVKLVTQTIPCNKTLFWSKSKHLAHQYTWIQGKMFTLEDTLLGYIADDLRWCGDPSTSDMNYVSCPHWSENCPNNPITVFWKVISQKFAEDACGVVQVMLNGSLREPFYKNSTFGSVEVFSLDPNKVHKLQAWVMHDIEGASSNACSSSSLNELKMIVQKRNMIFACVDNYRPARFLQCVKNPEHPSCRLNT
Method: The ability of test compounds to inhibit mouse CD38 hydrolase activity was measured in a fluorescence-based assay using non-physiological NAD^+ substrate analogue 1,N^6-etheno NAD^+ (ε-NAD). Recombinant mouse CD38 (0.4 nM) was preincubated with test compounds in 384-well black microplates for 30 min at 25° C. in PBS (—Ca^2+/Mg^2+) containing 0.005% BSA (pH 7.4). CD38 hydrolase activity was initiated by addition of 12 μM ε-NAD, which yields the fluorescent product 1,N^6-etheno ADP-ribose. Formation of fluorescent product was followed using ClarioStar Plus (BMG) microplate reader by reading fluorescence (excitation λ=300 nm; emission λ=410 nm) at two time points, one immediately after substrate addition (t=0) and one at 6 min (t=6).
Data was analysed by subtracting the values detected at t=0 from t=6 to correct for variation in baseline fluorescence, and fluorescence values were converted to percent inhibition using the average of high signal (CD38 and ε-NAD) and low signal (CD38 and ε-NAD in the presence of a tool CD38 inhibitor) control wells. IC50 values were determined from a 10-point, half log concentration response curve with a four-parameter logistic equation.

[2] = Tissue binding assay, brain homogenate (equilibrium dialysis); assay type: in vitro ADME; details: dialysis 4 hours at 37° C., dilution factor 4
Method: as §1, §2, §3, §4, §5, §6

Compound	Mouse plasma (% unbound) [1] [% unbound]	IC50 (Recombinant mouse CD38) [nM]	Mouse brain (% unbound) [2] [% unbound]
Cc1cc(C(=O)N[C@H]2CC[C@H](NCC(F)(F)F)CC2)nc(-n2ccnc2)n1 [Example 1, 2-(1H-imidazol-1-yl)-6-methyl-N-((1r,4r)-4-((2,2,2-trifluoroethyl)amino)cyclohexyl)pyrimidine-4-carboxamide]	13.0	≤ 40	68.9
Cc1cc(C(=O)N[C@H]2CC[C@H](NCC(F)F)CC2)nc(-n2ccnc2)n1 [Example 2, N-((1r,4r)-4-((2,2-difluoroethyl)amino)cyclohexyl)-2-(1H-imidazol-1-yl)-6-methyl-pyrimidine-4-carboxamide]	22.7	≤ 40	63.4
O=C(N[C@H]1CC[C@H](NCC(F)F)CC1)c1cc(C2CC2)nc(-n2ccnc2)n1 [Example 3, 6-cyclopropyl-N-((1r,4r)-4-((2,2-difluoroethyl)amino)cyclohexyl)-2-(1H-imidazol-1-yl)pyrimidine-4-carboxamide]	7.4	≤ 40	13.5
Cc1cc(C(=O)N[C@H]2CC[C@H](N3CCC(F)(F)C3)CC2)nc(-n2ccnc2)n1 [Example 10, N-((1r,4r)-4-(3,3-difluoropyrrolidin-1-yl)cyclohexyl)-2-(1H-imidazol-1-yl)-6-methyl-pyrimidine-4-carboxamide]	10.6	≤ 40	9.7
Cc1cc(C(=O)N[C@H]2CC[C@H](NC(C)(C)C(F)(F)F)CC2)nc(-n2ccnc2)n1 [Example 21, 2-(1H-imidazol-1-yl)-6-methyl-N-((1r,4r)-4-((1,1,1-trifluoro-2-methylpropan-2-yl)amino)cyclohexyl)pyrimidine-4-carboxamide]	4.1	≤ 40	3.6
